Reference: patent US11389415B2, “Methods of regulating cannabinoid receptor activity-related disorders and diseases” (The United States of America as represented by the …, priority 2012, dated 2022)
Read-outs that look alike come from different tables or passages of the source.

Columns and labels:
[1] = tested on: HT29; assay: Thymidine (Thy) 96 well, HT29; details: read-out: IC50 (uM), HT29 (Colon Cancer)
[2] = tested on: PC3; assay: [3H]-Thymidine incorporation in 96-well plates (Thy), PC3; details: read-out: IC50 (uM), PC3 (Prostrate Cancer)
[3] = tested on: LN-229; assay: tumor cell growth (CTG), LN-229 / LN229
[4] = tested on: GL261; assay: tumor cell growth, GL261; details: Table 6
[5] = tested on: U118; assay: tumor cell growth, U118; details: read-out: IC50 (uM), U118 (CNS); Table 6
[6] = tested on: NCIH460; assay: Thymidine (Thy) 96 well, NCIH460; details: read-out: IC50 (uM), NCIH460 (NSCLC)
[7] = tested on: MDAMB231; assay: tumor cell growth, MDAMB231; details: Table 6
[8] = tested on: PANC-1; assay: tumor cell growth, PANC-1; details: Table 6
[9] = tested on: LN-18; assay: tumor cell growth, LN-18; details: Table 6
[10] = tested on: U251; assay: tumor cell growth, U251; details: Table 6
[11] = tested on: LN229; assay: [3H]-Thymidine incorporation in 96-well plates (Thy), LN229; details: read-out: IC50 (uM), LN229 (CNS Cancer)
[12] = tested on: CAPAN; assay: tumor cell growth, CAPAN; details: Table 6
[13] = tested on: HEP3B; assay: tumor cell growth (CTG), HEP3B
[14] = tested on: A172; assay: tumor cell growth, A172; details: Table 6
[15] = tested on: U87; assay: tumor cell growth, U87; details: Table 6
[16] = tested on: HEPG2; assay: tumor cell growth, HEPG2; details: Table 6
[17] = tested on: PC3; assay: tumor cell growth (CTG), PC3
[18] = tested on: A549; assay: tumor cell growth, A549; details: read-out: IC50 (uM), A549 (NSCLC); Table 6
[19] = tested on: HEP3B; assay: [3H]-Thymidine incorporation in 96-well plates (Thy), HEP3B; details: read-out: IC50 (uM), HEP3B (Liver Cancer)
[20] = tested on: H460; assay: tumor cell growth (CTG), H460 / NCIH460
[21] = tested on: HT29; assay: tumor cell growth (CTG), HT29
[22] = tested on: HCT116; assay: Thymidine (Thy) 96 well, HCT116; details: read-out: IC50 (uM), HCT116 (Colon Cancer)
[23] = tested on: MCF7; assay: tumor cell growth, MCF7; details: Table 6
[24] = tested on: HCT116; assay: tumor cell growth (CTG), HCT116
[25] = tested on: Du-145; assay: tumor cell growth, Du-145; details: read-out: IC50 (uM), Du-145 (Prostate C); Table 6

COc1ccc(C[C@@H](C)NC[C@H](O)c2cc(O)cc(O)c2)cc1 [RR-MF, (R,R′)-4-methoxyfenoterol]
IC50 ([1]; 96 well Thy 2 days treatment): > 50 µM | IC50 ([1]; 96 well Tye 1 day treatment): > 50 µM | IC50 ([2]; 96 well Thy 2 days treatment): > 50 µM | IC50 ([2]; 96 well Tye 1 day treatment): > 50 µM | IC50 ([3]; read-out: IC50 (uM), LN229 (CNS Cancer), 96 well CTG 1 day treatment): > 50 µM | IC50 ([3]; read-out: IC50 (uM), LN229 (CNS Cancer), 96 well CTG 2 days treatment): > 50 µM | IC50 ([3]; read-out: IC50 (uM), LN229 (CNS Cancer), 384well CTG 3 days treatment −1): > 50 µM | IC50 ([3]; read-out: IC50 (uM), LN-229 (CNS), Table 6): > 50 µM | IC50 (uM), GL261 (CNS) [4]: N.E.? | IC50 [5]: > 50 µM | IC50 ([6]; 96 well Thy 2 days treatment): > 50 µM | IC50 ([6]; 96 well Tye 1 day treatment): > 50 µM | IC50 (uM), MDAMB231 (Breast C) [7]: N.E. | IC50 (uM), PANC-1 (Pancreatic C) [8]: N.E. | IC50 (uM), LN-18 (CNS) [9]: N.E.? | IC50 (uM), U251 (CNS) [10]: N.E. | IC50 ([11]; 96 well Thy 2 days treatment): > 50 µM | IC50 ([11]; 96 well Tye 1 day treatment): > 50 µM | IC50 (uM), CAPAN (Pancreatic C) [12]: N.E. | IC50 ([13]; read-out: IC50 (uM), HEP3B (Liver C), Table 6): > 50 µM | IC50 ([13]; read-out: IC50 (uM), HEP3B (Liver Cancer), 96 well CTG 1 day treatment): > 50 µM | IC50 ([13]; read-out: IC50 (uM), HEP3B (Liver Cancer), 96 well CTG 2 days treatment): > 50 µM | IC50 ([13]; read-out: IC50 (uM), HEP3B (Liver Cancer), 384well CTG 3 days treatment −1): > 50 µM | IC50 ([13]; read-out: IC50 (uM), HEP3B (Liver Cancer), 384well CTG 3 days treatment −2): > 50 µM | IC50 (uM), A172 (CNS) [14]: N.E.? | IC50 (uM), U87 (CNS) [15]: N.E. | IC50 (uM), HEPG2 (Liver C) [16]: N.E. | IC50 ([17]; read-out: IC50 (uM), PC3 (Prostate C), Table 6): > 50 µM | IC50 ([17]; read-out: IC50 (uM), PC3 (Prostrate Cancer), 96 well CTG 1 day treatment): > 50 µM | IC50 ([17]; read-out: IC50 (uM), PC3 (Prostrate Cancer), 96 well CTG 2 days treatment): > 50 µM | IC50 ([17]; read-out: IC50 (uM), PC3 (Prostrate Cancer), 384well CTG 3 days treatment −1): > 50 µM | IC50 [18]: > 50 µM | IC50 ([19]; 96 well Thy 2 days treatment): 2.35 µM | IC50 ([19]; 96 well Tye 1 day treatment): 2.4 µM | IC50 ([20]; read-out: IC50 (uM), H460 (NSCLC), Table 6): > 50 µM | IC50 ([20]; read-out: IC50 (uM), NCIH460 (NSCLC), 96 well CTG 1 day treatment): > 50 µM | IC50 ([20]; read-out: IC50 (uM), NCIH460 (NSCLC), 96 well CTG 2 days treatment): > 50 µM | IC50 ([20]; read-out: IC50 (uM), NCIH460 (NSCLC), 384well CTG 3 days treatment −1): > 50 µM | IC50 ([20]; read-out: IC50 (uM), NCIH460 (NSCLC), 384well CTG 3 days treatment −2): > 50 µM | IC50 ([21]; read-out: IC50 (uM), HT29 (Colon C), Table 6): > 50 µM | IC50 ([21]; read-out: IC50 (uM), HT29 (Colon Cancer), 96 well CTG 1 day treatment): > 50 µM | IC50 ([21]; read-out: IC50 (uM), HT29 (Colon Cancer), 96 well CTG 2 days treatment): > 50 µM | IC50 ([21]; read-out: IC50 (uM), HT29 (Colon Cancer), 384well CTG 3 days treatment −1): > 50 µM | IC50 ([22]; 96 well Thy 2 days treatment): > 50 µM | IC50 ([22]; 96 well Tye 1 day treatment): > 50 µM | IC50 (uM), MCF7 (Breast C) [23]: N.E. | IC50 ([24]; read-out: IC50 (uM), HCT116 (Colon C), Table 6): > 50 µM | IC50 ([24]; read-out: IC50 (uM), HCT116 (Colon Cancer), 96 well CTG 1 day treatment): > 50 µM | IC50 ([24]; read-out: IC50 (uM), HCT116 (Colon Cancer), 96 well CTG 2 days treatment): > 50 µM | IC50 ([24]; read-out: IC50 (uM), HCT116 (Colon Cancer), 384well CTG 3 days treatment −1): > 50 µM | IC50 ([24]; read-out: IC50 (uM), HCT116 (Colon Cancer), 384well CTG 3 days treatment −2): > 50 µM | IC50 [25]: > 50 µM
